The record followed here is US10947252B2, “Inhibitors of KEAP1-Nrf2 protein-protein interaction” (Janssen Pharmaceutica NV, priority 2018, dated 2021).

Assay [1] deals with Kelch domain of human KEAP1 (321-624 aa) (Homo sapiens (Human), UniProt Q14145). The experiment in a line: KEAP1 KELCH ThermoFluor binding assay.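 Note: Ligand-induced melting temperature shift of E. coli-expressed KEAP1 Kelch protein, Kd estimated from concentration-response curves of ΔTm.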 The settings on record: KEAP Kelch […], 1,8-ANS, pH 7.0, average of results obtained, read-out: Tf Kd. On the technique in general: In DSF a fluorescence change marks the thermal transition of the protein.
Assay [2] relates to Glo-Response ARE-luc2P HEK293 cell line. Kind of assay: ARE luciferase reporter cell-based assay.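 Note: luciferase signal tracks Nrf2 activation of the ARE once compounds disrupt KEAP1-Nrf2 binding, read with One-Glo reagent, DMSO serving as low control.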 Particulars: Homo sapiens, HEK293, 24 h, average of results obtained. A general note: In a reporter assay the amount or activity of a reporter protein is the signal.

Molecules are shown by their SMILES. Bounds are passed on as bounds.

As usually defined, the Kd is the concentration at which binding is half-saturated. What is called EC50 is the concentration at which the effect is half-maximal. A high value points to lower potency in that assay.

Chain of Kelch domain of human KEAP1 (321-624 aa) (Q14145 321-624): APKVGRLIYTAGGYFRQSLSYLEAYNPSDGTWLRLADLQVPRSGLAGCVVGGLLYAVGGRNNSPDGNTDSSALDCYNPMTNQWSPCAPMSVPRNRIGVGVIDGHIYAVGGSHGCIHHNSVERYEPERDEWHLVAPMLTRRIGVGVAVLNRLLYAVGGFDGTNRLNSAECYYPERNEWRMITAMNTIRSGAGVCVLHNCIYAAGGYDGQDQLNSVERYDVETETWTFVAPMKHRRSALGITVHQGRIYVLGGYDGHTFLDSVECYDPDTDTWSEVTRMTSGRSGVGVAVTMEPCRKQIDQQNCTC

As for `Cc1cnc([C@@H](c2ccn3c(C(F)F)nnc3c2C)C(C)(C)C(=O)O)cc1CN1CC2(CCOCC2)Oc2nc(OCCN3CCCCC3)c(C)cc2S1(=O)=O` (single isomer, unassigned) [Example 642, (*S)-3-(3-(Difluoromethyl)-8-methyl-[1,2,4]triazolo[4,3-a]pyridin-7-yl)-2,2-dimethyl-3-(5-methyl-4-((8′-methyl-1′,1′-dioxido-7′-(2-(piperidin-1-yl)ethoxy)-2,3,5,6-tetrahydrospiro[pyran-4,4′-pyrido[2,3-b][1,4,5]oxathiazepin]-2′(3′H)-yl)methyl)pyridin-2-yl)propanoic Acid], the Kd in assay [1] was < 1 nM. Also, a half-maximal response in assay [2] (EC50) required 36.6 nM.
For `CC[C@@H]1CN(Cc2cc(C(CC(=O)O)c3ccn4c(C)nnc4c3)ccc2C)S(=O)(=O)c2cccnc2O1` (mixture of isomers) [Example 162, (R/S)-3-(3-(((R)-4-Ethyl-1,1-dioxido-3,4-dihydro-2H-pyrido[2,3-b][1,4,5]oxathiazepin-2-yl)methyl)-4-methylphenyl)-3-(3-methyl-[1,2,4]triazolo[4,3-a]pyridin-7-yl)propanoic Acid] the same measures were < 1 nM and 2440 nM.
As to `Cc1ccc([C@H](c2ccn3c(C(F)(F)F)nnc3c2C)C(C)(C)C(=O)O)cc1CN1CC2(CCOCC2)Oc2nc(N[C@H](C)CN3CCOCC3)c(C)cc2S1(=O)=O` (single isomer, unassigned) [Example 362, (*R)-2,2-Dimethyl-3-(4-methyl-3-((8′-methyl-7′-(((R-1-morpholinopropan-2-yl)amino)-1′,1′-dioxido-2,3,5,6-tetrahydrospiro[pyran-4,4′-pyrido[2,3-b][1,4,5]oxathiazepin]-2′(3′H)-yl)methyl)phenyl)-3-(8-methyl-3-(trifluoromethyl)-[1,2,4]triazolo[4,3-a]pyridine-7-yl)propanoic Acid], the Kd in assay [1] was < 1 nM. In assay [2], a half-maximal effect (EC50) was put at 20.5 nM.
For `Cc1ccc([C@@H](CC(=O)O)c2ccn3c(C(F)(F)F)nnc3c2C)cc1CN1CC2(COC2)Oc2ncccc2S1(=O)=O` (single isomer, unassigned) [Example 261, (*R)-3-(3-((1′,1′-Dioxidospiro[oxetane-3,4′-pyrido[2,3-b][1,4,5]oxathiazepin]-2′(3′H)-yl)methyl)-4-methylphenyl)-3-(8-methyl-3-(trifluoromethyl)-[1,2,4]triazolo[4,3-a]pyridin-7-yl)propanoic Acid] the same measures were < 1 nM and 1390 nM.
The corresponding values for `CCn1nnc2c(C)c(C(CC(=O)O)c3ccc(C)c(CN4C[C@@H]5CCCCN5c5ncccc5S4(=O)=O)n3)ccc21` (stereo in doubt) [Example 301, 3-(6-(((*S)-5,5-Dioxido-7,7a,8,9,10,11-hexahydro-6H-dipyrido[2,1-d:2′,3′-][1,2,5]thiadiazepin-6-yl)methyl)-5-methylpyridin-2-yl)-3-(1-ethyl-4-methyl-1H-benzo[d][1,2,3]triazol-5-yl)propanoic Acid] are < 1 nM and 4.7 nM.
The corresponding values for `Cc1ccc(C(CC(=O)O)c2ccn3c(C(F)(F)F)nnc3c2)cc1CN1C[C@@H]2CCCN2c2ncccc2S1(=O)=O` (stereo partly drawn) [Example 253, 3-(3-(((S)-5,5-Dioxido-7a,8,9,10-tetrahydropyrido[2,3-f]pyrrolo[2,1-d][1,2,5]thiadiazepin-6(7H)-yl)methyl)-4-methylphenyl)-3-(3-(trifluoromethyl)-[1,2,4]triazolo[4,3-a]pyridin-7-yl)propanoic Acid] are < 1 nM and 1170 nM.
As for `CCn1nnc2c(C)c(C(CC(=O)O)c3ccc(C)c(CN4CC5(CCOCC5)Oc5ccc(F)cc5S4(=O)=O)n3)ccc21` (single isomer, unassigned) [Example 419, (*R)-3-(1-ethyl-4-methyl-1H-benzo[d][1,2,3]triazol-5-yl)-3-(6-((8-fluoro-1,1-dioxido-2′,3′,5′,6′-tetrahydrospiro[benzo[b][1,4,5]oxathiazepine-4,4′-pyran]-2(3H)-yl)methyl)-5-methylpyridin-2-yl)propanoic Acid], the Kd in assay [1] was < 1 nM. Further, in assay [2], the concentration for a half-maximal effect (EC50) was found to be 4.15 nM.
For `Cc1ccc([C@H](CC(=O)O)c2ccn3c(C(F)(F)F)nnc3c2C)cc1CN1C[C@H]2CCCCN2c2nc(C(N)=O)ccc2S1(=O)=O` (single isomer, unassigned) [Example 205, (*S)-3-(3-(((*R)-2-Carbamoyl-5,5-dioxido-7,7a,8,9,10,11-hexahydro-6H-dipyrido[2,1-d:2′,3′-f][1,2,5]thiadiazepin-6-yl)methyl)-4-methylphenyl)-3-(8-methyl-3-(trifluoromethyl)-[1,2,4]triazolo[4,3-a]pyridin-7-yl)propanoic Acid] the same measures were < 1 nM and 130 nM.
Consider `Cc1ccc([C@H](c2ccn3c(C(F)(F)F)nnc3c2C)C(C)(C)C(=O)O)cc1CN1CC2(CCOCC2)Oc2nc(OCCN3CCCC3)c(C)cc2S1(=O)=O` (single isomer, unassigned) [Example 609, (*R)-2,2-Dimethyl-3-(4-methyl-3-((8′-methyl-1′,1′-dioxido-7′-(2-(pyrrolidin-1-yl)ethoxy)-2,3,5,6-tetrahydrospiro[pyran-4,4′-pyrido[2,3-b][1,4,5]oxathiazepin]-2′(3′H)-yl)methyl)phenyl)-3-(8-methyl-3-(trifluoromethyl)-[1,2,4]triazolo[4,3-a]pyridin-7-yl)propanoic Acid], for which the Kd in assay [1] is 634 nM. Further, the EC50 in assay [2] is > 20000 nM.
For `Cc1ccc([C@@H](c2ccn3c(C(F)(F)F)nnc3c2C)C(C)(C)C(=O)O)cc1CN1C[C@@H]2CCCCN2c2ncc(C#N)cc2S1(=O)=O` (single isomer, unassigned) [Example 424, (*S)-3-(3-(((*S)-3-cyano-5,5-dioxido-7,7a,8,9,10,11-hexahydro-6H-dipyrido[2,1-d:2′,3′-f][1,2,5]thiadiazepin-6-yl)methyl)-4-methylphenyl)-2,2-dimethyl-3-(8-methyl-3-(trifluoromethyl)-[1,2,4]triazolo[4,3-a]pyridin-7-yl)propanoic Acid] the same measures were < 1 nM and 1.65 nM.
For `Cc1ccc([C@H](CC(=O)O)c2ccn3c(C(F)(F)F)nnc3c2C)cc1CN1C[C@H]2CCCCN2c2ncccc2S1(=O)=O` (single isomer, unassigned) [Example 272, (*S)-3-(3-(((*R)-5,5-Dioxido-7,7a,8,9,10,11-hexahydro-6H-dipyrido[2,1-d:2′,3′-f][1,2,5]thiadiazepin-6-yl)methyl)-4-methylphenyl)-3-(8-methyl-3-(trifluoromethyl)-[1,2,4]triazolo[4,3-a]pyridin-7-yl)propanoic Acid] the same measures were < 1 nM and 10.9 nM.
The corresponding values for `Cc1ccc([C@@H](c2ccn3c(C(F)(F)F)nnc3c2C)C(C)(C)C(=O)O)cc1CN1CC(C)(C)Oc2ncccc2S1(=O)=O` (single isomer, unassigned) [Example 430, (*S)-3-(3-((4,4-dimethyl-1,1-dioxido-3,4-dihydro-2H-pyrido[2,3-b][1,4,5]oxathiazepin-2-yl)methyl)-4-methylphenyl)-2,2-dimethyl-3-(8-methyl-3-(trifluoromethyl)-[1,2,4]triazolo[4,3-a]pyridin-7-yl)propanoic Acid] are 7830 nM and 647 nM.
